From patent US4487937A, “2-(2-Substitutedamino-4-thiazolyl)-2-(1-methoxy-isopropoxyimino)-acetic acids” (Roussel Uclaf, priority 1977, dated 1984)
Converted amounts (≈) assume the structure as drawn. Like-named read-outs stand apart in the source and are kept apart here.

What was measured:
Assay in all cases: In vitro MIC, dilution of a liquid medium
Format in all cases: cell-based
[1] = test system: Staphylococcus aureus exp. n° 54 146; conditions: 37° C., read-out: minimum inhibiting concentration (MIC)
Procedure: (§1) The method used was a dilution of a liquid medium where a series of tubes received the same quantity of a sterile nutritive media and increasing doses of the test compounds were placed therein. Then each tube was seeded with a bacterial strain and was incubated for 24 or 48 hours at 37° C. in an oven. The increasing inhibition was determined by transillumination to determine the minimum inhibiting concentration (MIC in μg/ml) and the results are reported in the following Tables.

[2] = test system: Bacillus subtilis ATCC 6 633; conditions: 37° C., read-out: minimum inhibiting concentration (MIC)
Procedure: as §1

[3] = test system: Streptococcus faecalis 99 F 74; conditions: Enterococcus faecalis, 99F74, 37° C., read-out: minimum inhibiting concentration (MIC)
Procedure: as §1

[4] = test system: Proteus mirabilis (indol -) A 235; conditions: 37° C., read-out: minimum inhibiting concentration (MIC)
Procedure: as §1

[5] = test system: Staphylococcus aureus UC 1 128 Penicillin-resistant; conditions: 37° C., read-out: minimum inhibiting concentration (MIC)
Procedure: as §1

[6] = test system: Klebsiella pneumoniae Exp. 52 145; conditions: read-out: minimum inhibiting concentration (MIC)
Procedure: as §1

[7] = test system: Streptococcus pyogenes A 561; conditions: read-out: minimum inhibiting concentration (MIC)
Procedure: as §1

[8] = test system: Proteus vulgaris (indol +) A 232; conditions: read-out: minimum inhibiting concentration (MIC)
Procedure: as §1

[9] = test system: Escherichia Coli Resistant Gentamicine, Tobramycine R 55 123 D; conditions: read-out: minimum inhibiting concentration (MIC)
Procedure: as §1

[10] = test system: Streptococcus faecalis 5 432; conditions: Enterococcus faecalis, 5432, 37° C., read-out: minimum inhibiting concentration (MIC)
Procedure: as §1

[11] = test system: Staphylococcus aureus ATCC 6 538 Penicillin-Sensitive; conditions: 37° C., read-out: minimum inhibiting concentration (MIC)
Procedure: as §1

Providencia Du 48 = conditions: 37° C., read-out: minimum inhibiting concentration (MIC)
Procedure: as §1

[12] = test system: Escherichia Coli Resistant Tetracycline ATCC 11 303; conditions: read-out: minimum inhibiting concentration (MIC)
Procedure: as §1

[13] = test system: Salmonella typhimurium 420; conditions: Salmonella enterica, read-out: minimum inhibiting concentration (MIC)
Procedure: as §1

[14] = test system: Escherichia Coli Exp. TO26 B6; conditions: 37° C., read-out: minimum inhibiting concentration (MIC)
Procedure: as §1

[15] = test system: Serratia Resistant Gentamicine 2 532; conditions: 37° C., read-out: minimum inhibiting concentration (MIC)
Procedure: as §1

[16] = test system: Escherichia Coli Sensitive Tetracycline ATCC 9 637; conditions: read-out: minimum inhibiting concentration (MIC)
Procedure: as §1

Enterobacter cloacae 681 = conditions: 37° C., read-out: minimum inhibiting concentration (MIC)
Procedure: as §1

[17] = test system: Klebsiella pneumoniae 2 536 Resistant Gentamicine; conditions: read-out: minimum inhibiting concentration (MIC)
Procedure: as §1

In the case of `CCOC(=O)CO/N=C(\C(=O)NC1C(=O)N2C(C(=O)O)=C(COC(C)=O)CS[C@H]12)c1csc(N)n1` (some centres unmarked) [Example 2, 7-[2-(2-amino-4-thiazolyl)-2-carbethoxymethyloxyimino-acetamido]-3-acetoxymethyl-ceph-3-eme-4-carboxylic acid], the MIC ([1]; 24 H) is reported as 3 µg/mL (≈ 5.69 µM), the MIC ([1]; 48 H) is reported as 5 µg/mL (≈ 9.48 µM) and the MIC ([2]; ATCC6, 24 H) is reported as 0.5 µg/mL (≈ 0.948 µM). It also gave an MIC ([2]; ATCC6, 48 H) of 5 µg/mL (≈ 9.48 µM), an MIC ([3]; 24 H) of over 40 µg/mL and an MIC ([3]; 48 H) of over 40 µg/mL. It also gave an MIC ([4]; 24 H) of 0.2 µg/mL (≈ 0.379 µM), an MIC ([4]; 48 H) of 0.2 µg/mL (≈ 0.379 µM) and an MIC ([5]; UC1, 24 H) of 3 µg/mL (≈ 5.69 µM). For the same compound, the MIC ([5]; UC1, 48 H) was 3 µg/mL (≈ 5.69 µM), the MIC ([6]; EXP.52145, 48 H, 37° C.) was 0.2 µg/mL (≈ 0.379 µM) and the MIC ([6]; EXP.52145, 24 h) was 0.1 µg/mL (≈ 0.19 µM). For the same compound, the MIC ([7]; A561, 24 H, 37° C.) was 0.05 µg/mL (≈ 0.0948 µM), the MIC ([7]; A561, 48 h) was 0.1 µg/mL (≈ 0.19 µM) and the MIC ([8]; 24 h) was 1 µg/mL (≈ 1.9 µM). For the same compound, the MIC ([8]; 48 h) was 1 µg/mL (≈ 1.9 µM), the MIC ([9]; 24 h) was 1 µg/mL (≈ 1.9 µM) and the MIC ([9]; 48 h) was 1 µg/mL (≈ 1.9 µM). It also gave an MIC ([10]; 24 H) of 5 µg/mL (≈ 9.48 µM), an MIC ([10]; 48 H) of over 40 µg/mL and an MIC ([11]; ATCC6, 24 H) of 3 µg/mL (≈ 5.69 µM). It also gave an MIC ([11]; ATCC6, 48 H) of 5 µg/mL (≈ 9.48 µM), an MIC (Providencia Du 48; DU48, 24 H) of 5 µg/mL (≈ 9.48 µM) and an MIC (Providencia Du 48; DU48, 48 H) of 5 µg/mL (≈ 9.48 µM). It also gave an MIC ([12]; ATCC11, 24 H, 37° C.) of 0.5 µg/mL (≈ 0.948 µM), an MIC ([12]; ATCC11, 48 h) of 1 µg/mL (≈ 1.9 µM) and an MIC ([13]; 48 H, 37° C.) of 2 µg/mL (≈ 3.79 µM). The MIC ([13]; 24 h) was 1 µg/mL (≈ 1.9 µM), the MIC ([14]; 24 H) was 1 µg/mL (≈ 1.9 µM) and the MIC ([14]; 48 H) was 1 µg/mL (≈ 1.9 µM). It also gave an MIC ([15]; 24 H) of 5 µg/mL (≈ 9.48 µM), an MIC ([15]; 48 H) of 5 µg/mL (≈ 9.48 µM) and an MIC ([16]; ATCC9, 24 H, 37° C.) of 2 µg/mL (≈ 3.79 µM). It also gave an MIC ([16]; ATCC9, 48 H, 37° C.) of 2 µg/mL (≈ 3.79 µM), an MIC (Enterobacter cloacae 681; 24 H) of 10 µg/mL (≈ 19 µM) and an MIC (Enterobacter cloacae 681; 48 H) of 10 µg/mL (≈ 19 µM). For the same compound, the MIC ([17]; 24 H, 37° C.) was 2 µg/mL (≈ 3.79 µM) and the MIC ([17]; 48 H, 37° C.) was 2 µg/mL (≈ 3.79 µM).
Work on `CC(=O)OCC1=C(C(=O)O)N2C(=O)C(NC(=O)/C(=N\OCC(=O)O)c3csc(N)n3)[C@H]2SC1` (some centres unmarked) [Example 5, disodium 7-[2-(2-amino-4-thiazolyl)-2-hydroxycarbonylmethoxyimino-acetamido]-3-acetoxymethyl-ceph-3-eme-4-carboxylate] yielded an MIC ([1]; 24 H) of 20 µg/mL, an MIC ([1]; 48 H) of 20 µg/mL and an MIC ([3]; 24 H) of over 40 µg/mL. For the same compound, the MIC ([3]; 48 H) was over 40 µg/mL, the MIC ([4]; 24 H) was at most 0.02 µg/mL and the MIC ([4]; 48 H) was at most 0.02 µg/mL. It also gave an MIC ([5]; UC1, 24 H) of 20 µg/mL, an MIC ([5]; UC1, 48 H) of 20 µg/mL and an MIC ([6]; EXP.52145, 24 h) of 0.1 µg/mL. The MIC ([6]; EXP.52145, 48 h) was 0.1 µg/mL, the MIC ([7]; A561, 24 H, 37° C.) was 0.5 µg/mL and the MIC ([7]; A561, 48 H, 37° C.) was 0.5 µg/mL. It also gave an MIC ([8]; 24 h) of 0.1 µg/mL, an MIC ([8]; 48 h) of 0.1 µg/mL and an MIC ([9]; 24 h) of 0.1 µg/mL. It also gave an MIC ([9]; 48 h) of 0.1 µg/mL, an MIC ([10]; 24 H) of 20 µg/mL and an MIC ([10]; 48 H) of over 40 µg/mL. The MIC ([11]; ATCC6, 24 H) was 10 µg/mL, the MIC ([11]; ATCC6, 48 H) was 10 µg/mL and the MIC (Providencia Du 48; DU48, 24 H) was 1 µg/mL. The MIC (Providencia Du 48; DU48, 48 H) was 2 µg/mL, the MIC ([12]; ATCC11, 24 H, 37° C.) was 0.05 µg/mL and the MIC ([12]; ATCC11, 48 H, 37° C.) was 0.05 µg/mL. For the same compound, the MIC ([13]; 48 H, 37° C.) was 0.5 µg/mL, the MIC ([13]; 24 h) was 0.2 µg/mL and the MIC ([14]; 24 H) was 0.1 µg/mL. For the same compound, the MIC ([14]; 48 H) was 0.1 µg/mL, the MIC ([15]; 24 H) was 1 µg/mL and the MIC ([15]; 48 H) was 2 µg/mL. The MIC ([16]; ATCC9, 24 h) was 0.2 µg/mL, the MIC ([16]; ATCC9, 48 h) was 0.2 µg/mL and the MIC (Enterobacter cloacae 681; 24 H) was 5 µg/mL. It also gave an MIC (Enterobacter cloacae 681; 48 H) of 20 µg/mL, an MIC ([17]; 24 h) of 0.1 µg/mL and an MIC ([17]; 48 h) of 0.1 µg/mL.
